Data reported in US12648936B2 (NOVARTIS AG, priority 2019, dated 2026).
pIC50, pKd: −log10 of the molar value.

Legend:
[1] = tested on: pS6 (Ser240/244) in MEF TSC1−/− cells (mTORC1 signaling); experiment: Cell-based assay for rapalog potency (pS6 in MEF TSC1-/- cells); parameters: species or system Mouse; details: 2 hours treatment, average from multiple assays
[2] = target: T1, FKBP12 (Homo sapiens, UniProt P62942); experiment: SPR assay, binding affinity to FKBP12; details: single-cycle kinetics, immobilized avi-his6 FKBP12
T1 construct: made in house; host or cells: E. coli
T1 sequence (P62942 whole entry): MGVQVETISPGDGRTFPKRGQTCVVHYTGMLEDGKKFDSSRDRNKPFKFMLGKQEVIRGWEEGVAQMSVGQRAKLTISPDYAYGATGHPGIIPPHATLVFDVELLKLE
Protocol: (§1) SPR assay to determine binding affinity to FK506-binding proteins (FKBP). […] Each protein was subsequently immobilized on a streptavidin chip in a Biacore 8K SPR instrument (GE Healthcare). Using single-cycle kinetics, compound titrations were flowed at 45 uL/min over each surface using 2-minute association and 30-minute dissociation phases in a buffer containing 50 mM Tris pH 7.5/150 mM NaCl/0.01% Tween 20/1 mM DTT/2% DMSO. The data were fit using low molecular weight (LMW) single-cycle kinetics. The equilibrium dissociation constants (KD) are reported. The equilibrium dissociation constants (KD) to FKBP12, FKBP51, and FKBP52 are listed in Table 2 for the compound of the disclosure.

[3] = target: T2, FKBP51 (Homo sapiens, UniProt Q13451); experiment: SPR assay, binding affinity to FKBP51; details: single-cycle kinetics, immobilized avi-his6 FKBP51
T2 construct: made in house; host or cells: E. coli
T2 sequence (Q13451 1-457): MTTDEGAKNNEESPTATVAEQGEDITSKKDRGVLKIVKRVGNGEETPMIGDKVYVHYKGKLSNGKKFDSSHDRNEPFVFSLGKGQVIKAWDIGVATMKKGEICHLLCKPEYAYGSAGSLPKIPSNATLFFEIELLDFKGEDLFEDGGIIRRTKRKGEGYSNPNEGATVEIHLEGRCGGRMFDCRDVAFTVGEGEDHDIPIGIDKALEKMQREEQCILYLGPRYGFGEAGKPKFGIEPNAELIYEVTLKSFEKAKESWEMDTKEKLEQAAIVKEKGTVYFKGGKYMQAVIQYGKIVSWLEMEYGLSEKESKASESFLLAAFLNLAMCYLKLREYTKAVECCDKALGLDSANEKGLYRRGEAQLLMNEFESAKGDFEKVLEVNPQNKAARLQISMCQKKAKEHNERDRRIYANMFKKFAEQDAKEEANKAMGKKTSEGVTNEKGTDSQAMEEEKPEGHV
Protocol: as §1

[4] = target: T3, FKBP52 (Homo sapiens, UniProt Q02790); experiment: SPR assay, binding affinity to FKBP52; details: single-cycle kinetics, immobilized avi-his6 FKBP52
T3 construct: made in house; host or cells: E. coli
T3 sequence (Q02790 1-459): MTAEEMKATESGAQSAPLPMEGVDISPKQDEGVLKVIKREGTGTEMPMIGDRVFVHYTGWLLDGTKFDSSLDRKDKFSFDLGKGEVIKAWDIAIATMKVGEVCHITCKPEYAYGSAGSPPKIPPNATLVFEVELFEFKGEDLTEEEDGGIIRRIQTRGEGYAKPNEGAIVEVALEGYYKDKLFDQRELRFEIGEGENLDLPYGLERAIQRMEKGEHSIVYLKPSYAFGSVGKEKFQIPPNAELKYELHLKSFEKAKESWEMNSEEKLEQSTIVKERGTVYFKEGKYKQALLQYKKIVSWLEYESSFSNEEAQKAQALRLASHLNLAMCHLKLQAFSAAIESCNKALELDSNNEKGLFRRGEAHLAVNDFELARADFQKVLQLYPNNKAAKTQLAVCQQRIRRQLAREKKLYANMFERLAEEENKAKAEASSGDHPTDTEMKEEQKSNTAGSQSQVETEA
Protocol: as §1

[5] = target: FKBP12.6 (Homo sapiens, UniProt P68106); experiment: SPR assay, binding affinity to FKBP12.6; details: single-cycle kinetics
Chain of FKBP12.6 (P68106 whole entry, species assumed): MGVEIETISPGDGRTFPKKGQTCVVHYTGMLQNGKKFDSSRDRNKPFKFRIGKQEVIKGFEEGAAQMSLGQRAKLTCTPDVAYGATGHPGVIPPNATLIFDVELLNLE
Protocol: as §1

[6] = target: T4, FKBP25 (Homo sapiens, UniProt Q00688); experiment: SPR assay, binding affinity to FKBP25; details: single-cycle kinetics
T4 sequence (Q00688 1-224): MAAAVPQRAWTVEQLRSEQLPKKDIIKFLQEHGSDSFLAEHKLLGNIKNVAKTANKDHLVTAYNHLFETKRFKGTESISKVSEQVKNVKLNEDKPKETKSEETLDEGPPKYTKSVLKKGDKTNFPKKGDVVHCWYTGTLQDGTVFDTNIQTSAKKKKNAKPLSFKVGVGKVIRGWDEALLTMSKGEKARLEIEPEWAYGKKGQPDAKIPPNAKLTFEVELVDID
Protocol: as §1

[7] = tested on: S6K1(Thr389) phosphorylation (mTORC1 activity) in FKBP12 knock-out 293T cells; experiment: pS6K1(Thr389) sandwich ELISA in FKBP12 knock-out 293T cells; type: cell-based; details: 2 hours, dose range 1000 nM to 0.0033 nM, relative to DMSO media (FIG. 1B)
Protocol: Cells were treated in triplicate. The Y axis represents percent inhibition of pS6K1(Thr389) relative to the level in cells treated with rapalog free media (media plus DMSO).
Generation of FKPB12 knock-out 293T cells.
WT and FKBP12 knock-out 293T cells were plated at a density of 30,000 cells per well in poly-D-Lysine coated 96-well plates (Corning, #354461) in Dulbecco's modified Eagle's medium (ThermoFisher, #11995-065) supplemented with 10% fetal bovine serum (ThermoFisher, #16140-071). Cells were incubated at 37° C., 5% CO2 for 48 hours until they reached ˜80% confluence. […] Media supplemented with blank Dimethyl sulfoxide (DMSO) was used as a control for both compounds. Phosphorylated amounts of S6K1 (Thr389) were detected by a sandwich ELISA kit (Cell signaling, #7063C) following the manufacture's protocol.
S6K1 is a downstream target of mTORC1 and phosphorylation of its rapalog-sensitive Thr389 site is used as a functional readout of mTORC1 activity (Lee, C. H., Inoki, K. and Guan, K. L. (2007). mTOR pathway as a target in tissue hypertrophy. Annu. Rev. Pharmacol. Toxicol. 47, 443-467).

Compound	pIC50 [1]	pIC50 ([1]; Mus musculus, 2 h)	pKd [2]	pKd [3]	pKd [4]	pKd [5]	pKd [6]	inhibition of S6K1(Thr389) phosphorylation [7]
CO[C@@H]1C[C@H](C[C@@H](C)[C@@H]2CC(=O)[C@H](C)/C=C(\C)[C@@H](O)[C@@H](OC)C(=O)[C@H](C)C[C@H](C)/C=C/C=C/C=C(\C)C(N3CCCCS3(=O)=O)C[C@@H]3CC[C@@H](C)[C@@](O)(O3)C(=O)C(=O)N3CCCC[C@H]3C(=O)O2)CC[C@H]1O (stereo partly drawn) [Compound 4]		8.47	7.96	5.59	5.59			
CO[C@H]1C[C@@H]2CC[C@@H](C)[C@@](O)(O2)C(=O)C(=O)N2CCCC[C@H]2C(=O)O[C@H]([C@H](C)C[C@@H]2CC[C@@H](O)[C@H](OC)C2)CC(=O)[C@H](C)/C=C(\C)[C@@H](O)[C@@H](OC)C(=O)[C@H](C)C[C@H](C)/C=C/C=C/C=C/1C [Rapamycin, reference compound]		10.30						
CO[C@@H]1C[C@H](C[C@@H](C)[C@@H]2CC(=O)[C@H](C)/C=C(\C)[C@@H](O)[C@@H](OC)C(=O)[C@H](C)C[C@H](C)/C=C/C=C/C=C(\C)C(N3CCCS3(=O)=O)C[C@@H]3CC[C@@H](C)[C@@](O)(O3)C(=O)C(=O)N3CCCC[C@H]3C(=O)O2)CC[C@H]1O (stereo partly drawn) [Compound 1]		8.87	8.19	5.69	5.45	7.25	4.54	no longer inhibited
CO[C@H]1C[C@@H]2CC[C@@H](C)[C@@](O)(O2)C(=O)C(=O)N2CCCC[C@H]2C(=O)O[C@H]([C@H](C)C[C@@H]2CC[C@@H](OCCO)[C@H](OC)C2)CC(=O)[C@H](C)/C=C(\C)[C@@H](O)[C@@H](OC)C(=O)[C@H](C)C[C@H](C)/C=C/C=C/C=C/1C [RAD001, everolimus, reference compound]		10.30	6.54	6.40	6.17	7.92	7.60	~50%

More lines, main results first:

pIC50 [1]	pIC50 ([1]; Mus musculus, 2 h)	pKd [2]	pKd [3]	pKd [4]	pKd [5]	pKd [6]	Compound	inhibition of S6K1(Thr389) phosphorylation [7]
8.08							CO[C@@H]1C[C@H](C[C@@H](C)[C@@H]2CC(=O)[C@H](C)/C=C(\C)[C@@H](O)[C@@H](OC)C(=O)[C@H](C)C[C@H](C)/C=C/C=C/C=C(\C)C(N3CCCS3(=O)=O)C[C@@H]3CC[C@@H](C)[C@@](O)(O3)C(=O)C(=O)N3CCCC[C@H]3C(=O)O2)CC[C@H]1OCCO (single isomer, unassigned) [Compound 3]	
7.65							CO[C@@H]1C[C@H](C[C@@H](C)[C@@H]2CC(=O)[C@H](C)/C=C(\C)[C@@H](O)[C@@H](OC)C(=O)[C@H](C)C[C@H](C)/C=C/C=C/C=C(\C)C(N3CCCS3(=O)=O)C[C@@H]3CC[C@@H](C)[C@@](O)(O3)C(=O)C(=O)N3CCCC[C@H]3C(=O)O2)CC[C@H]1OCCO (single isomer, unassigned) [Compound 2]	
